One block for each compound: values may come before it.
How the values were obtained:
UGT1A9 = molecular target: T1, UGT1A9 (Homo sapiens, UniProt O60656); assay: biochemical
T1 sequence (O60656 26-530): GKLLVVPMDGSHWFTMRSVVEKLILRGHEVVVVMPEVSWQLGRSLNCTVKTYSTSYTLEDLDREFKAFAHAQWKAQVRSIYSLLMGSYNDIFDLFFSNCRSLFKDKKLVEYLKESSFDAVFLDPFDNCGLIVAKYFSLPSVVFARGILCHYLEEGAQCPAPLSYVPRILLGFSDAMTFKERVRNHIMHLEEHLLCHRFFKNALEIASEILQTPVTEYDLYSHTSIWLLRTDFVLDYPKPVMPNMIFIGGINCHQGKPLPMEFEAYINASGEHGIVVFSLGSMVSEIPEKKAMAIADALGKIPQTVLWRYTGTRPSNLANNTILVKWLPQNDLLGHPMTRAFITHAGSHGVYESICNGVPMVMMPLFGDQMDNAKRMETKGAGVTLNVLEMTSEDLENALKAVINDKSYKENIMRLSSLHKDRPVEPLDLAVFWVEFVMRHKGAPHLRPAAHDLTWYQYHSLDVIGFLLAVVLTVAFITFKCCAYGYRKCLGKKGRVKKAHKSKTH

UGT2B7 = molecular target: T2, UGT2B7 (Homo sapiens, UniProt P16662); assay: biochemical
T2 sequence (P16662 24-529): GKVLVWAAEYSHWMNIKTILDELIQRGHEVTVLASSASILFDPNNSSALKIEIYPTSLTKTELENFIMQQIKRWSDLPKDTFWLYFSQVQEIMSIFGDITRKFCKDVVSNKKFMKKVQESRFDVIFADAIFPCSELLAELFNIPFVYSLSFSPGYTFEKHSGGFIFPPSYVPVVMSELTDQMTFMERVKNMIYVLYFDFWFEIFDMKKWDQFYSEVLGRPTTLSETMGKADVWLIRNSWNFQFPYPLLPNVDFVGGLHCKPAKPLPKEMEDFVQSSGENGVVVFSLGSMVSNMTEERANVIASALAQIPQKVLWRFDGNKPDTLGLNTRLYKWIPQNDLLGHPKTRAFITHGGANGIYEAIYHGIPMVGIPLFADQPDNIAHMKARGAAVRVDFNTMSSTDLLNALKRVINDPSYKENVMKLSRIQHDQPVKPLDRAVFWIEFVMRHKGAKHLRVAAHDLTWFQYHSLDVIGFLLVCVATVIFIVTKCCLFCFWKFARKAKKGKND

ASBT = molecular target: T3, ASBT (Homo sapiens, UniProt Q12908); conditions: inhibition of ASBT, implemented in DDI model; ref [38]; cited from earlier work
T3 sequence (Q12908 1-348): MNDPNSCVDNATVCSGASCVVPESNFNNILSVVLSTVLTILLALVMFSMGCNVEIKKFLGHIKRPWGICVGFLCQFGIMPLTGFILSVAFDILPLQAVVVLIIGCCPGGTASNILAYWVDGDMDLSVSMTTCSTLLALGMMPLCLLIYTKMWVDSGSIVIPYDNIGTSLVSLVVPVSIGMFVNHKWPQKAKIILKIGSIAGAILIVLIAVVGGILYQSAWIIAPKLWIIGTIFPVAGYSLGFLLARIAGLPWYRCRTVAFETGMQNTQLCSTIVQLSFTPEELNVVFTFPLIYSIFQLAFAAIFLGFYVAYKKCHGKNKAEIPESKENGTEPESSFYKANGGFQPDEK

OAT3 = conditions: inhibition of OAT3, implemented in DDI model; ref [41]; cited from earlier work
MATE2K = MATE2K (Homo sapiens, UniProt Q86VL8); conditions: 4 µM probe substrate, HEK 293-MATE2K
Chain of MATE2K (Q86VL8 1-566 isoform Q86VL8-3): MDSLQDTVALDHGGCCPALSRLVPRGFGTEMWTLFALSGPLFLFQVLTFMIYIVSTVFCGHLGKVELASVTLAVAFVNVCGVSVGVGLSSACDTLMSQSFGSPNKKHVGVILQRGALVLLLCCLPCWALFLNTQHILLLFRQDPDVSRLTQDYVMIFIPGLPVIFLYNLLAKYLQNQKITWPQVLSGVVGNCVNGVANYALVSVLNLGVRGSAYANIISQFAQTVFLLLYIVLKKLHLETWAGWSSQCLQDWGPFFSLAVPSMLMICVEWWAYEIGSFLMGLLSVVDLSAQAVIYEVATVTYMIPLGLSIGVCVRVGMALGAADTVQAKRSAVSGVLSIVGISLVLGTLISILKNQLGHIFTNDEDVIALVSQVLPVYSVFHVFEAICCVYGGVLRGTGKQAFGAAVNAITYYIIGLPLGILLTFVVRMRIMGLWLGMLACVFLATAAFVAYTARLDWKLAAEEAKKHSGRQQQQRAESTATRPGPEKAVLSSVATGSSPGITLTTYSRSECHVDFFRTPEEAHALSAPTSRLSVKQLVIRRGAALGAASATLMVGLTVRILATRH
Description: (§1) OCT1-, OCT2-, MATE1-, and MATE2K-overexpressing HEK 293 cells and mock cells. To
(§2) aminohippuric acid for OAT1, 4 µM [14C]Metformin for OCT1, OCT2, MATE1, and
(§3) lein for OATP2B1, 100 µM probenecid for OAT1, 100 µM verapamil for OCT1, 200 µM
(§4) and MATE2K, respectively).
(§5) and –MATE2K and mock cells.

OCT1 = molecular target: T4, OCT1 (Homo sapiens, UniProt O15245); conditions: 4 µM probe substrate, HEK 293-OCT1
T4 sequence (O15245 1-554): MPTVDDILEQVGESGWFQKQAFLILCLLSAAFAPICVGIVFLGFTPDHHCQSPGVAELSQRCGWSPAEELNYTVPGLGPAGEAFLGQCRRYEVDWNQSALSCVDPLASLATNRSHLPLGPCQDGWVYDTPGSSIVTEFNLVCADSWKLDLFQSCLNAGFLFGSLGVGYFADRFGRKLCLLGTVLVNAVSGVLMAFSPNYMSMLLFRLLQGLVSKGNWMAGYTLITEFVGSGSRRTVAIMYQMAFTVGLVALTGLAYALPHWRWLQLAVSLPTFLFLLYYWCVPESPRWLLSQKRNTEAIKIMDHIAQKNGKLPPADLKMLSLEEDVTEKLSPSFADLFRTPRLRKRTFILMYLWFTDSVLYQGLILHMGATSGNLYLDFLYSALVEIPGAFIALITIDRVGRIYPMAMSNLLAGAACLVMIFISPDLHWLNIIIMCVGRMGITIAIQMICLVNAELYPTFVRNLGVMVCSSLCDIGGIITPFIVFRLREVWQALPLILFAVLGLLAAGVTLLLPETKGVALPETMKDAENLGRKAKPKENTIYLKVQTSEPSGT
Description: as §1, §2, §3, §4, §5

OCT2 = molecular target: T5, OCT2 (Homo sapiens, UniProt O15244); conditions: 4 µM probe substrate, HEK 293-OCT2
T5 sequence (O15244 1-555): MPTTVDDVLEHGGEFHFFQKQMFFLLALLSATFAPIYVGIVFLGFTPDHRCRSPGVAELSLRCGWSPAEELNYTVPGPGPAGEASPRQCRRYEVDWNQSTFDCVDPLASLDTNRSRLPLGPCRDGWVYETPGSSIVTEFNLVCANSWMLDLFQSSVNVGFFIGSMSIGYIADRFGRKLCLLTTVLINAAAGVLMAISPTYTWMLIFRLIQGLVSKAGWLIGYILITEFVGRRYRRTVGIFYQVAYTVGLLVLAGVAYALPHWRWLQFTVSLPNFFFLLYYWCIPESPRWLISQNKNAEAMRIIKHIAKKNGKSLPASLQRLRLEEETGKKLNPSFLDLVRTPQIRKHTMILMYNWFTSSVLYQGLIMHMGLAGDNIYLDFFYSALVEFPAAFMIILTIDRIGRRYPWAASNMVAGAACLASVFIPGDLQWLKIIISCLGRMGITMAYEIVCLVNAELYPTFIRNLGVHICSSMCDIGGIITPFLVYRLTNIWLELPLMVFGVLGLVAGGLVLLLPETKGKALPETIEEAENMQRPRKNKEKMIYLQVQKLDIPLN
Description: as §1, §2, §3, §4, §5

MATE1 = molecular target: T6, MATE1 (Homo sapiens, UniProt Q96FL8); conditions: 4 µM probe substrate, HEK 293-MATE1
T6 sequence (Q96FL8 1-570): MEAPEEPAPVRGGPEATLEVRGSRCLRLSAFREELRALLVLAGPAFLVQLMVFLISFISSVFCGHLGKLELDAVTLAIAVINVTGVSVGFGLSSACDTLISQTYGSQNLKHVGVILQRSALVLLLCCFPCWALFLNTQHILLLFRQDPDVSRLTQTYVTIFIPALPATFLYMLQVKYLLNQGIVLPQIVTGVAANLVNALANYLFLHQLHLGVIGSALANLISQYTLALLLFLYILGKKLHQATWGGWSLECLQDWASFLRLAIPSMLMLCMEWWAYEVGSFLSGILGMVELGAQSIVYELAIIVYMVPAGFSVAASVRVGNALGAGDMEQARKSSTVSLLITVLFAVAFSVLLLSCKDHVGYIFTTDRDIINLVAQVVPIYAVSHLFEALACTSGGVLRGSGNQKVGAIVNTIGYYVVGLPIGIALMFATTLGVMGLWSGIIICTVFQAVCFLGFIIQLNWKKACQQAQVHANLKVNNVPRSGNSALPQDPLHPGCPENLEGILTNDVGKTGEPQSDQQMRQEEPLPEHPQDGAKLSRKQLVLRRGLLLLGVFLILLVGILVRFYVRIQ
Description: as §1, §2, §3, §4, §5

UGT1A1 = molecular target: T7, UGT1A1 (Homo sapiens, UniProt P22309); assay: biochemical
T7 sequence (P22309 26-533): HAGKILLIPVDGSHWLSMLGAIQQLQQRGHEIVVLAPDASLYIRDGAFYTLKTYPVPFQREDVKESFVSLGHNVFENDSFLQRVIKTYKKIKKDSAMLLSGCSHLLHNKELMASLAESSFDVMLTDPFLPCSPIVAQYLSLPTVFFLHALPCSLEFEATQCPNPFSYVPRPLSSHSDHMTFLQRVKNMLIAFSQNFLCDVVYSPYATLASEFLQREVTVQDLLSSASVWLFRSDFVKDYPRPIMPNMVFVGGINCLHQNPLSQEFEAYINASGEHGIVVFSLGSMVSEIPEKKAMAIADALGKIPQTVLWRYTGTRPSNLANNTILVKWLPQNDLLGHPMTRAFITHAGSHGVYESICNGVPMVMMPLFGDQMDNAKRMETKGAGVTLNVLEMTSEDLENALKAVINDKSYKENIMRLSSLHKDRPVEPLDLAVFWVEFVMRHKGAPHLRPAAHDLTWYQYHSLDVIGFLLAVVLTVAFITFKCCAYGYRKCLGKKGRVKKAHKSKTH

UGT1A4 = molecular target: T8, UGT1A4 (Homo sapiens, UniProt P22310); assay: biochemical
T8 sequence (P22310 29-534): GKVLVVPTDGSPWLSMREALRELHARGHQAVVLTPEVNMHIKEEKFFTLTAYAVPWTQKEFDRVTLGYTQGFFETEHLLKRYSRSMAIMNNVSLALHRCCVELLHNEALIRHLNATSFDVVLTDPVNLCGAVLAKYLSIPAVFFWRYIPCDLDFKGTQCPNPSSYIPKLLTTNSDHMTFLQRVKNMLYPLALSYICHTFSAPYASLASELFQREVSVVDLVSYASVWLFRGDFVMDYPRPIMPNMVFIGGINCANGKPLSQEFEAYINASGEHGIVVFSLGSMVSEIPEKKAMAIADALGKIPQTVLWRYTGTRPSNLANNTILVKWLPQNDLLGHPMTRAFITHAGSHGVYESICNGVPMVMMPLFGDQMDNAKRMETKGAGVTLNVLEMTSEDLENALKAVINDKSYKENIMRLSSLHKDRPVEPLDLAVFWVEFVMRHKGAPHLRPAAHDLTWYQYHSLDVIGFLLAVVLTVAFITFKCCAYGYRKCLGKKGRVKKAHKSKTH

SMILES: CCc1ccc(CCOc2ccc(CC3SC(=O)NC3=O)cc2)nc1 (stereo not shown) [pioglitazone]
Ki (ASBT): 54.6 µM | Ki (OAT3): 1020 nM

SMILES: CN(C)C(N)=NC(=N)N [[14C]Metformin]
Increase of probe substrate uptake rate in transporter-expressing cells compared to mock cells (MATE2K): 4.2 fold | Increase of probe substrate uptake rate in transporter-expressing cells compared to mock cells (OCT1): 4.8 fold | Increase of probe substrate uptake rate in transporter-expressing cells compared to mock cells (OCT2): 8.0 fold | Increase of probe substrate uptake rate in transporter-expressing cells compared to mock cells (MATE1): 18.3 fold

SMILES: C[C@@H]1CC[C@@]2(OC1)O[C@H]1C[C@H]3[C@@H]4CC[C@H]5C[C@@H](O)CC[C@]5(C)[C@H]4CC(=O)[C@]3(C)[C@H]1[C@@H]2C [Hecogenin]
IC50 (UGT1A4): 2100 nM

More lines, now with the values ahead:

IC50 (UGT1A9): 280 nM
SMILES: O=C(O)c1cccnc1Nc1cccc(C(F)(F)F)c1 [Niflumic acid]

IC50 (UGT2B7): 27.3 µM
SMILES: O=C1Nc2ccc(Cl)cc2[C@@](C#CC2CC2)(C(F)(F)F)O1 [Efavirenz]

IC50 (UGT1A1): 290 nM
SMILES: COC(=O)N[C@H](C(=O)N[C@@H](Cc1ccccc1)[C@@H](O)CN(Cc1ccc(-c2ccccn2)cc1)NC(=O)[C@@H](NC(=O)OC)C(C)(C)C)C(C)(C)C [Atazanavir]

Reference: publication PMC8308925 (Pharmaceuticals, 2021)
